As a reminder, the chromatographic logP is lipophilicity estimated from chromatographic retention. High values mean higher lipophilicity, low ones lower lipophilicity.

System in the first data set: not listed separately
As to the kind of experiment: physchem. The note with it: log P.
Take `CC(C)C(C)Nc1c(-c2c(F)cccc2Cl)cnc2c(C#N)cnn12` (stereo not shown) [Example 4, 6-(2-chloro-6-fluorophenyl)-7-[(1,2-dimethylpropyl)amino)pyrazolo[1,5-a]pyrimidine-3-carbonitrile]: the chromatographic logP came out at 3.78. On the same count and under the same terms, as for `CC(C)C(C)Nc1c(-c2ccc(F)cc2Cl)cnc2c(Cl)cnn12` (stereo not shown) [Example 5, N-[3-chloro-6-(2-chloro-4-fluorophenyl)pyrazolo[1,5-a]pyrimidin-7-yl]-N-(1,2-dimethylpropyl)amine], the figure is 4.53. `C[C@H](Nc1c(-c2c(F)cc(F)cc2F)c(Cl)nc2c(Cl)cnn12)C(F)(F)F` [Example 3, N-[3,5-dichloro-6-(2,4,6-trifluorophenyl)pyrazolo[1,5-a]pyrimidin-7-yl]-N-[(1S)-2,2,2-trifluoro-1-methylethyl]amine] yielded a chromatographic logP of 4.43. Same read-out and setting: the value for `CC(Nc1c(-c2ccc(F)cc2Cl)c(Cl)nc2c(C=O)cnn12)C(C)(C)C` (stereo not shown) [Example 401, 3-formyl-5-chloro-6-(2-chloro-4-fluorophenyl)-7-(1,2,2-trimethylpropylamino)pyrazolo[1,5a]pyrimidine] was 4.43; that for `N#Cc1cnn2c(Cl)c(-c3ccc(F)cc3Cl)c(Cl)nc12` [Example 441, 3-cyano-5,7-dichloro-6-(2-chloro-4-fluorophenyl)pyrazolo[1,5-a]pyrimidine] was 3.48. For `CO/N=C\c1cnn2c(NC(C)C(C)(C)C)c(-c3ccc(F)cc3Cl)c(Cl)nc12` (stereo not shown) [Example 402, 3-methoximino-5-chloro-6-(2-chloro-4-fluorophenyl)-7-(1,2,2-trimethylpropylamino)pyrazolo[1,5a]pyrimidine], the chromatographic logP came to 5.48. `C[C@H](Nc1c(-c2ccc(F)cc2Cl)c(Cl)nc2c(C#N)cnn12)C(F)(F)F` (single isomer, unassigned) [Example 1]: the chromatographic logP is 3.88. Still for that read-out and setting: the value for `Fc1ccc(-c2cnc3c(Cl)cnn3c2Cl)c(Cl)c1` [Example 443, 3,7-dichloro-6-(2-chloro-4-fluorophenyl)pyrazolo[1,5-a]pyrimidine] was 3.56; that for `Fc1cc(F)c(-c2c(Cl)nc3c(Cl)cnn3c2Cl)c(F)c1` [Example 442, 3,5,7-trichloro-6-(2,4,6-trifluorophenyl)pyrazolo[1,5-a]pyrimidine] was 3.97.

Staying with this data set, now noted: logP.
Turning to `C=C(C)CN(C)c1c(-c2c(F)cc(F)cc2F)c(Cl)nc2c(C#N)cnn12` [compound 110], the chromatographic logP was determined as 4.24. Compound `N#Cc1cnn2c(NCC3CC3)c(-c3c(F)cccc3Cl)c(Cl)nc12` [compound 29] displayed a chromatographic logP of 3.74. In the case of `N#Cc1cnn2c(N3CCC(F)(F)CC3)c(-c3c(F)cc(F)cc3F)c(Cl)nc12` [compound 230], the chromatographic logP was determined as 3.81. On the same count and under the same terms, the value for `CC1CCN(c2c(-c3ccccc3Cl)c(Cl)nc3c(C#N)cnn23)CC1` [compound 95] was 4.78; that for `N#Cc1cnn2c(N3CCOCC3)c(-c3c(F)cccc3Cl)c(Cl)nc12` [compound 14] was 3.26. Still for that read-out and setting: as for `C=C(C)CN(CC)c1c(-c2c(F)cc(F)cc2F)c(Cl)nc2c(C#N)cnn12` [compound 6], the figure is 4.6; as for `CC(Nc1c(-c2ccc(F)cc2Cl)c(Cl)nc2c(C=O)cnn12)C(C)(C)C` (stereo not shown) [Example 401, 3-formyl-5-chloro-6-(2-chloro-4-fluorophenyl)-7-(1,2,2-trimethylpropylamino)pyrazolo[1,5a]pyrimidine], 4.43; as for `C[C@H](Nc1c(-c2c(F)cc(F)cc2F)c(Cl)nc2c(C#N)cnn12)C(F)(F)F` [compound 7], 3.69. Same read-out and setting: as for `CO/N=C\c1cnn2c(NC(C)C(C)(C)C)c(-c3ccc(F)cc3Cl)c(Cl)nc12` (stereo not shown) [Example 402, 3-methoximino-5-chloro-6-(2-chloro-4-fluorophenyl)-7-(1,2,2-trimethylpropylamino)pyrazolo[1,5a]pyrimidine], the figure is 5.48; as for `N#Cc1cnn2c(NCC3CC3)c(-c3c(F)cc(F)cc3F)c(Cl)nc12` [compound 54], 3.63; as for `CC(C)CN(C)c1c(-c2c(F)cc(F)cc2F)c(Cl)nc2c(C#N)cnn12` [compound 108], 4.37. For the compound `CC(C)CNc1c(-c2ccc(F)cc2F)c(Cl)nc2c(C#N)cnn12` [compound 148], the chromatographic logP was 3.87. `C[C@H](Nc1c(-c2c(F)cccc2Cl)c(Cl)nc2c(C#N)cnn12)C(F)(F)F` [compound 12] displayed a chromatographic logP of 3.73. In turn, `C[C@H](Nc1c(-c2ccccc2F)c(Cl)nc2c(C#N)cnn12)C(F)(F)F` [compound 74] showed a chromatographic logP of 3.49. On the same count and under the same terms, as for `Fc1cc(F)c(-c2c(Cl)nc3c(Cl)cnn3c2N2CCC(F)(F)CC2)c(F)c1` [compound 231], the figure is 4.61; as for `CC1CCN(c2c(-c3c(F)cccc3Cl)c(Cl)nc3c(C#N)cnn23)CC1` [compound 28], 4.77; as for `N#Cc1cnn2c(N3CCC(F)CC3)c(-c3c(F)cccc3Cl)c(Cl)nc12` [compound 34], 3.82. Turning to `CC(C)CN(C)c1c(-c2ccccc2Cl)c(Cl)nc2c(C#N)cnn12` [compound 138], the chromatographic logP is 4.51. For the compound `CC(C)Nc1c(-c2c(F)cc(F)cc2F)c(Cl)nc2c(C#N)cnn12` [compound 52], the chromatographic logP was determined as 3.54. Compound `N#Cc1cnn2c(N3CCCCC3)c(-c3c(F)cccc3Cl)c(Cl)nc12` [compound 21] came in with a chromatographic logP of 4.32. `C=C(C)CN(CC)c1c(-c2c(F)cccc2Cl)c(Cl)nc2c(C#N)cnn12` [compound 13] registered a chromatographic logP of 4.68. On the same count and under the same terms, as for `CCC(C)Nc1c(-c2c(F)cc(F)cc2F)c(Cl)nc2c(C#N)cnn12` (stereo not shown) [compound 50], the figure is 3.89; as for `CC(C)CN(C)c1c(-c2c(F)cccc2Cl)c(Cl)nc2c(C#N)cnn12` [compound 46], 4.51.

The next data set relates to Botrytis cinerea. Nature of the data set: Botrytis test (bean)/protective. The note with it: topical, 48 h, protective, application rate 500 g/ha, evaluation 2 days after inoculation, read-out: Efficacy in %. In kind it is in vivo. As to the method:
Botrytis Test (Bean)/Protective
To produce a suitable preparation of active compound, 1 part by weight of active compound is mixed with the stated amounts of solvent and emulsifier, and the concentrate is diluted with water to the desired concentration. To test for protective activity, young plants are sprayed with the preparation of active compound at the stated application rate. After the spray coating has dried on, 2 small pieces of agar colonized by Botrytis cinerea are placed onto each leaf. The inoculated plants are placed in a dark chamber at about 20° C. and 100% relative atmospheric humidity.
2 days after the inoculation, the size of the infected areas on the leaves is evaluated. 0% means an efficacy which corresponds to that of the control, whereas an efficacy of 100% means that no infection is observed.
For the compound `CC(C)[C@@H](C)Nc1c(-c2c(F)cc(F)cc2F)c(Cl)nc2c(C#N)cnn12` [drawing 118], the pest or weed control at 500 g/ha amounted to 96%.

For the compound `CC(Nc1c(-c2ccc(F)cc2Cl)c(Cl)nc2c(C#N)cnn12)C(F)(F)F` (stereo not shown) [drawing 123], the pest or weed control at 500 g/ha stood at 99%.

As to `N#Cc1cnn2c(N3CCCCC3)c(-c3c(F)cccc3Cl)c(Cl)nc12` [drawing 111], the pest or weed control at 500 g/ha came to 93%.

As to `C[C@H](Nc1c(-c2c(F)cc(F)cc2F)c(Cl)nc2c(Cl)cnn12)C(F)(F)F` [drawing 116], the pest or weed control at 500 g/ha was 100%. As to `CC(C)CN(C)c1c(-c2c(F)cc(F)cc2F)c(Cl)nc2c(C#N)cnn12` [drawing 121], the pest or weed control at 500 g/ha was 100%.

Consider `CC1CCN(c2c(-c3c(F)cccc3Cl)c(Cl)nc3c(C#N)cnn23)CC1` [drawing 112], for which the pest or weed control at 500 g/ha came out at 96%. Consider `CC1CCN(c2c(-c3ccccc3Cl)c(Cl)nc3c(C#N)cnn23)CC1` [drawing 126], for which the pest or weed control at 500 g/ha stood at 95%. In the case of `CC(C)Nc1c(-c2c(F)cc(F)cc2F)c(Cl)nc2c(C#N)cnn12` [drawing 120], the pest or weed control at 500 g/ha was determined as 93%. On the same count and under the same terms, the value for `CC(C)CN(C)c1c(-c2c(F)cccc2Cl)c(Cl)nc2c(C#N)cnn12` [drawing 128] was 99%.

Consider `C=C(C)CN(CC)c1c(-c2c(F)cc(F)cc2F)c(Cl)nc2c(C#N)cnn12` [drawing 114], for which the pest or weed control at 500 g/ha is 100%. On the same count and under the same terms, the value for `C[C@H](Nc1c(-c2ccc(F)cc2Cl)c(Cl)nc2c(C#N)cnn12)C(F)(F)F` [drawing 124] was 100%. Regarding `C=C(C)CN(C)c1c(-c2c(F)cc(F)cc2F)c(Cl)nc2c(C#N)cnn12` [drawing 122], the pest or weed control at 500 g/ha was found to be 100%.

On to `CC(C)CN(C)c1c(-c2ccccc2Cl)c(Cl)nc2c(C#N)cnn12` [drawing 125], for which the pest or weed control at 500 g/ha was 100%. Consider `N#Cc1cnn2c(N3CCC(F)CC3)c(-c3c(F)cccc3Cl)c(Cl)nc12` [drawing 127], for which the pest or weed control at 500 g/ha stood at 94%.

The values above are taken from patent publication US20060089499A1, “Pyrazolopyrimidines and the use thereof for controlling harmful organisms” (priority 2002, published 2006).
